Results from US11491204B2, “Composition comprising poly I:C and LAG-3-IGG fusion protein” (CYTLIMIC INC., priority 2015, dated 2022).

Assays:
P815 tumor cells [1] = test: Cancer vaccine: comparison of adjuvants with P1A peptide in P815-grafted DBA/2 mice; type: in vivo; conditions: groups of 5 mice; P1A CTL i.v. Day 8; P1A peptide 50 μg + adjuvant s.c. Day 9 and Day 16
Source text: In accordance with the protocol shown in FIG. 1, the effects of adjuvants in cancer vaccines using a cancer-antigen derived peptide were compared.
As cancer model mice, DBA/2 mice, to which P815 cells (DBA/2mouse-derived mouse mastocytoma) were grafted, were put in use.
As a cancer-antigen derived peptide, a peptide (hereinafter referred to as “PIA peptide”) consisting of a partial sequence of PIA protein was used, which is a tumor antigen of P815 tumor and known to be restrictively presented by an MHC H-2Ld. The amino acid sequence of P1A peptide are represented by LPYLGWLVF (SEQ. ID No: 1).
As P1A CTL, a T cell expressing a T cell receptor and recognizing P1A peptide was used. […] Based on the positive ratio, the number of P1A-CTL cells was determined and administered.
As the adjuvants, the following substances were used. • Whole pertussis bacterial cell (PT) (BioFarma, Bandung, Indonesia) • Poly I:C (TLR3 agonist) (Invivogen, SanDiego, USA) • CpG (TLR9 agonist) (Invivogen, SanDiego, USA) • IFA (incomplete Freund's adjuvant) (Seppic, Paris, France) • LAG-3 (Adipogen, SanDiego, USA) Method
P815 tumor cells were subcutaneously inoculated to DBA/2 mice in an amount of 5×10^5 cells per mouse. The day of inoculation was specified as Day 0. On Day 8, P1A CTL (2.5×10^5 cells per mouse) were intravenously injected. […]

P815 tumor cells [2] = test: Suppression effect of tumor growth by immunoadjuvant combination (P815 model); type: in vivo, DBA/2 mice
Source text: The following substances were used as adjuvants.
Poly I:C (TLR3 agonist) (Invivogen, SanDiego, USA)
RIBOXXOL (TLR3 agonist) (Riboxx, Radebeul, Germany)
MPL (TLR4 agonist) (Invivogen, SanDiego, USA)
Imiquimod (TLR7/8 agonist) (Invivogen, SanDiego, USA)
CpG (TLR9 agonist) (Invivogen, SanDiego, USA)
LAG-3 (Adipogen, SanDiego, USA)
P815 tumor cells were subcutaneously inoculated to DBA/2 mice in an amount of 5×10^5 cells per mouse to prepare cancer model mice. The day of inoculation was specified as Day 0. On Day 7, PIA CTL (2.5×10^5 cells per mouse) were intravenously injected. Day 8 and Day 15, an admixture of PIA peptide (50 μg per mouse) and an adjuvant in PBS was subcutaneously injected. Mice were divided into 9 groups each consisting of 4 or 5 mice and the following adjuvants were used respectively.
Group 1: PIA peptide alone (control)
(§1) Group 2: Poly IC (50 μg/mouse)
Group 3: Poly IC (50 μg/mouse)+LAG-3 (1 μg/mouse)
Group 4: No PIA peptide, Poly IC (50 μg/mouse)+LAG-3 (1 μg/mouse) alone
Group 5: RIBOXXOL (100 μg/mouse)
Group 6: RIBOXXOL (100 μg/mouse)+LAG-3 (1 μg/mouse)
Group 7: MPL (10 μg/mouse)+LAG-3 (1 μg/mouse)
Group 8: Imiquimod (50 μg/mouse)+LAG-3 (1 μg/mouse)
Group 9: CpG (10 μg/mouse)+LAG-3 (1 μg/mouse)

B16-F10 melanoma cells = test: Tumor growth inhibitory effect by combination of immuno-adjuvants, B16-F10 melanoma inoculation model mice; type: in vivo, C57BL/6 mice
Procedure: To C57BL/6 mice, B16-F10 melanoma cells (1×10^5 cells per mouse) were subcutaneously inoculated to prepare cancer model mice.
The day of inoculation was specified as Day 0. On Day 5 and Day 12, twice in total, an admixture of gp100 peptide (50 μg per mouse) and an adjuvant in PBS was subcutaneously injected. The following adjuvants were used in respective mice groups.
Group 1: IFA (50 μL/mouse)
as §1
Group 3: LAG-3 (1 μg/mouse)
Group 4: LAG-3 (1 μg/mouse)+Poly IC (50 μg/mouse)

Substance | number of mice survived until Day 70 without increasing tumor size (P815 tumor cells [1]) | mice survived (out of 5) (P815 tumor cells [2]; with PIA peptide 50 μg s.c. Day 8 and Day 15, time point apparently Day 40) | effect of extending survival time (in words) (B16-F10 melanoma cells; Poly IC and LAG-3 alone compared to IFA group, combination compared to IFA, Poly IC and LAG-3 groups) | Day on which five mice all died (B16-F10 melanoma cells; gp100 peptide 50 μg + adjuvant s.c. Day 5 and Day 12) [days] | Day up to which all mice died (P815 tumor cells [2]; 5 out of 5 mice, PIA peptide without adjuvant) [days]
Polyinosinic:polycytidylic acid [Poly IC] | 1 | Four | a significant effect of extending survival time was not observed | 35 | –
LPYLGWLVF (listed as Mus musculus) [PIA peptide alone] | – | – | – | – | ≤ 40
